Test results published in patent US20200405696A1, “INHIBITORS OF INDOLEAMINE 2,3-DIOXYGENASE AND/OR TRYPTOPHAN 2,3-DIOXYGENASE” (IDORSIA PHARMACEUTICALS LTD, priority 2018, published 2020).

Tests used:
[1] = target: T1, Recombinant full-length human IDO1 (Homo sapiens, UniProt P14902); assay: IDO1 enzymatic assay (NFK quantified by LCMS); type: biochemical; settings: 2 nM enzyme, 5 μM L-tryptophan, pH6.5, 30 minutes pre-incubation at RT; mean values when measured multiple times; read-out: hIDO activity (IC50 in nM)
T1 construct: Recombinant full-length human IDO1 with a N-terminal hexahistidine tag; hexahistidine (His6) (N); made in house; host or cells: E. coli
T1 sequence (P14902 whole entry): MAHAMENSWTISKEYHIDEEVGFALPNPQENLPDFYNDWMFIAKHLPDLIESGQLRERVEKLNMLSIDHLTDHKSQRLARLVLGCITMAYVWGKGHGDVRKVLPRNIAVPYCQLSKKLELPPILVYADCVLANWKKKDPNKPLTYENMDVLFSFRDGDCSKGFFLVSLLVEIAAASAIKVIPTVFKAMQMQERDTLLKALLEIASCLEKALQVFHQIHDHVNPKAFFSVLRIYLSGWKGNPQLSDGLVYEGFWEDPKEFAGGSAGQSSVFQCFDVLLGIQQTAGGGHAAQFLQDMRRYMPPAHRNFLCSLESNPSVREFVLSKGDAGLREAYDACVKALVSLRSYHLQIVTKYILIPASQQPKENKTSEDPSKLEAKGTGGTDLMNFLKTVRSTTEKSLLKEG
In short: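 His-tagged human IDO1 (2 nM) in pH 6.5 phosphate buffer with ascorbate, methylene blue and catalase was preincubated with compound (10 μM–0.5 nM, 0.6% DMSO) for 30 min at RT. The reaction then ran with 5 μM L-Trp for 30 min. NFK was measured by LCMS against a d5-Trp standard, and IC50 was obtained by four-parameter fit.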

[2] = target: T2, Recombinant human TDO comprising amino acids 19-407 (Homo sapiens, UniProt P48775); assay: TDO2 enzymatic assay (NFK quantified by LCMS); type: biochemical; settings: 15 nM enzyme, 200 μM L-tryptophan, pH7, 30 minutes pre-incubation at RT; mean values when measured multiple times; read-out: hTDO activity (IC50 in nM)
T2 construct: Recombinant human TDO comprising amino acids 19-407 with a N-terminal hexahistidine tag; hexahistidine (His6) (N); made in house; host or cells: E. coli
T2 sequence (P48775 19-406 limits assumed): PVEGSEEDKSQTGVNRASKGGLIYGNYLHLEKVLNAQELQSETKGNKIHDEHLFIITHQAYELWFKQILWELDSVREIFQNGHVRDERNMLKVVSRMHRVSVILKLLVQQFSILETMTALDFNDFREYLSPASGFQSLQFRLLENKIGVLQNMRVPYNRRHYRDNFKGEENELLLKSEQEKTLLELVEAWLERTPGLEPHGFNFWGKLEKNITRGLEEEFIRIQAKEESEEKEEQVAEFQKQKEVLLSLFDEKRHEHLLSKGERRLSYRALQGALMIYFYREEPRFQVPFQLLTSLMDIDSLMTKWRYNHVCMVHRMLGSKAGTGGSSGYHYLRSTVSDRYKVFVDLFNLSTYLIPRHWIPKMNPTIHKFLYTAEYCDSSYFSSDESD
In short: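 NFK formed over 30 min at RT from 200 μM L-tryptophan was measured by LCMS, normalized to d5-tryptophan, after compound (0.5 nM–10 μM, duplicates, 0.6% DMSO) was preincubated 30 min with 15 nM recombinant His-tagged TDO 19-407 in phosphate buffer pH 7. IC50 from four-parameter logistic fit; repeats averaged.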

| Compound | IC50 [1] [nM] | IC50 [2] [nM] |
| --- | --- | --- |
| COc1cc(C)c(-n2cc(C(O)c3c(C4CC4)sc4cncn34)nn2)c(C)c1 (racemic) [Example 311, rac-(2-Cyclopropyl-imidazo[5,1-b]thiazol-3-yl)-[1-(4-methoxy-2,6-dimethyl-phenyl)-1H-[1,2,3]triazol-4-yl]-methanol] | 137 | > 10200 |
| OC(c1cn(-c2cccc3cnccc23)nn1)c1c(C2CC2)sc2cncn12 (racemic) [Example 23, rac-(2-Cyclopropyl-imidazo[5,1-b]thiazol-3-yl)-(1-isoquinolin-5-yl-1H-[1,2,3]triazol-4-yl)-methanol] | 24 | > 10200 |
| Oc1cccc(Cn2cc(C(O)c3c(C4CC4)sc4cncn34)nn2)c1 (racemic) [Example 298, rac-3-{4-[(2-Cyclopropyl-imidazo[5,1-b]thiazol-3-yl)-hydroxy-methyl]-[1,2,3]triazol-1-ylmethyl}-phenol] | 23.3 | > 10200 |
| COc1ccc(-n2nnc(C(O)c3c(C4CC4)sc4cncn34)c2C(C)C)cc1 (racemic) [Example 280, rac-(2-Cyclopropyl-imidazo[5,1-b]thiazol-3-yl)-[5-isopropyl-1-(4-methoxy-phenyl)-1H-[1,2,3]triazol-4-yl]-methanol] | 53.2 | > 10200 |
| Oc1ccc(-n2cc(C(O)c3c(C4CC4)sc4cncn34)nn2)cc1OC(F)(F)F (racemic) [Example 210, rac-4-{4-[(2-Cyclopropyl-imidazo[5,1-b]thiazol-3-yl)-hydroxy-methyl]-[1,2,3]triazol-1-yl}-2-trifluoromethoxy-phenol] | 23.5 | > 10200 |
| CC(C)(O)CCOc1ccc(-n2cc([C@H](O)c3c(-c4ccccc4)sc4cncn34)nn2)cc1Cl [Example 268a, 4-(2-Chloro-4-{4-[(R)-hydroxy-(2-phenyl-imidazo[5,1-b]thiazol-3-yl)-methyl]-[1,2,3]triazol-1-yl}-phenoxy)-2-methyl-butan-2-ol] | 123 | 10000 |
| OC(c1cn(-c2ccc(OCc3ccccc3)c(F)c2)nn1)c1c([C@@H]2C[C@H]2F)sc2cncn12 (relative stereo) [Example 322, [1-(4-Benzyloxy-3-fluoro-phenyl)-1H-[1,2,3]triazol-4-yl]-[2-(trans-2-fluoro-cyclopropyl)-imidazo[5,1-b]thiazol-3-yl]-methanol] | 16.2 | > 10200 |
| COc1ccc(-n2cc(C(O)c3c(C4CC4)sc4cncn34)nn2)cc1I (racemic) [Example 291, rac-(2-Cyclopropyl-imidazo[5,1-b]thiazol-3-yl)-[1-(3-iodo-4-methoxy-phenyl)-1H-[1,2,3]triazol-4-yl]-methanol] | 41.1 | > 10200 |
| Oc1cc(-n2cc(C(O)c3c(C4CC4)sc4cncn34)nn2)cc(C(F)(F)F)c1 (racemic) [Example 219, rac-3-{4-[(2-Cyclopropyl-imidazo[5,1-b]thiazol-3-yl)-hydroxy-methyl]-[1,2,3]triazol-1-yl}-5-trifluoromethyl-phenol] | 63.2 | > 10200 |
| OC(c1cn(-c2cccc3cc[nH]c23)nn1)c1c(C2CC2)sc2cncn12 (racemic) [Example 27, rac-(2-Cyclopropyl-imidazo[5,1-b]thiazol-3-yl)-[1-(1H-indol-7-yl)-1H-[1,2,3]triazol-4-yl]-methanol] | 24.1 | > 10200 |
| OC(c1cn(-c2cncc3ccccc23)nn1)c1c(C2CC2)sc2cncn12 (racemic) [Example 26, rac-(2-Cyclopropyl-imidazo[5,1-b]thiazol-3-yl)-(1-isoquinolin-4-yl-1H-[1,2,3]triazol-4-yl)-methanol] | 5.68 | 4190 |
| Cc1sc2cncn2c1C(O)c1cnc(-c2ccccc2)s1 (racemic) [Example 155, rac-(2-Methyl-imidazo[5,1-b]thiazol-3-yl)-(2-phenyl-thiazol-5-yl)-methanol] | 734 | > 10200 |
| OC(c1cn(-c2ccc(OCc3ccccc3)nc2)nn1)c1c(C2CC2)sc2cncn12 (racemic) [Example 77, rac-[1-(6-Benzyloxy-pyridin-3-yl)-1H-[1,2,3]triazol-4-yl]-(2-cyclopropyl-imidazo[5,1-b]thiazol-3-yl)-methanol] | 32.7 | > 10200 |
| OC(c1cn(-c2ccccc2)nn1)c1c(C2CCCC2)sc2cncn12 (racemic) [Example 13, rac-(2-Cyclopentyl-imidazo[5,1-b]thiazol-3-yl)-(1-phenyl-1H-[1,2,3]triazol-4-yl)-methanol] | 54.4 | 8410 |
| OC(c1cn(-c2cn[nH]c2)nn1)c1c(C2CC2)sc2cncn12 (racemic) [Example 41, rac-(2-Cyclopropyl-imidazo[5,1-b]thiazol-3-yl)-[1-(1H-pyrazol-4-yl)-1H-[1,2,3]triazol-4-yl]-methanol] | 305 | > 10200 |
| COc1ccc(-n2nnc(C(O)c3c(C4CC4)sc4cncn34)c2F)cc1 (racemic) [Example 336, rac-(2-Cyclopropyl-imidazo[5,1-b]thiazol-3-yl)-[5-fluoro-1-(4-methoxy-phenyl)-1H-[1,2,3]triazol-4-yl]-methanol] | 32.7 | > 10200 |

Results, then the molecule that gave them:

| IC50 [1] [nM] | IC50 [2] [nM] | Compound |
| --- | --- | --- |
| 47.2 | > 10200 | CCNS(=O)(=O)c1ccc(-n2cc(C(O)c3c(CC)sc4cncn34)nn2)cc1 (racemic) [Example 244, rac-N-Ethyl-4-{4-[(2-ethyl-imidazo[5,1-b]thiazol-3-yl)-hydroxy-methyl]-[1,2,3]triazol-1-yl}-benzenesulfonamide] |
| 12.8 | > 10200 | COc1ccc(-n2cc(C(O)c3c([C@@H]4C[C@H]4F)sc4cncn34)nn2)cc1 (relative stereo) [Example 94, [2-(trans-2-Fluoro-cyclopropyl)-imidazo[5,1-b]thiazol-3-yl]-[1-(4-methoxy-phenyl)-1H-[1,2,3]triazol-4-yl]-methanol] |
| 704 | > 10200 | COc1ccc(-n2cc(C(O)c3c(-c4ccc(F)cc4)sc4cncn34)nn2)cc1 (racemic) [Example 286, rac-[2-(4-Fluoro-phenyl)-imidazo[5,1-b]thiazol-3-yl]-[1-(4-methoxy-phenyl)-1H-[1,2,3]triazol-4-yl]-methanol] |
| 4.83 | 9290 | Oc1ccc(-n2cc(C(O)c3c(C4CC4)sc4cncn34)nn2)cc1F (racemic) [Example 150, rac-4-{4-[(2-Cyclopropyl-imidazo[5,1-b]thiazol-3-yl)-hydroxy-methyl]-[1,2,3]triazol-1-yl}-2-fluoro-phenol] |
| 133 | 9720 | CCc1sc2cncn2c1C(O)c1cn(-c2ccc(C(=O)NCCN(C)C)cc2)nn1 (racemic) [Example 119, rac-N-(2-Dimethylamino-ethyl)-4-{4-[(2-ethyl-imidazo[5,1-b]thiazol-3-yl)-hydroxy-methyl]-[1,2,3]triazol-1-yl}-benzamide] |
| 13.1 | > 10200 | CCc1sc2cncn2c1C(O)c1cn(-c2ccc(C(=O)NCCC#N)cc2)nn1 (racemic) [Example 130, rac-N-(2-Cyano-ethyl)-4-{4-[(2-ethyl-imidazo[5,1-b]thiazol-3-yl)-hydroxy-methyl]-[1,2,3]triazol-1-yl}-benzamide] |
| 15.8 | 9550 | CCc1sc2cncn2c1C(O)c1cn(-c2ccc(C(=O)NCCO)cc2)nn1 (racemic) [Example 118, rac-4-{4-[(2-Ethyl-imidazo[5,1-b]thiazol-3-yl)-hydroxy-methyl]-[1,2,3]triazol-1-yl}-N-(2-hydroxy-ethyl)-benzamide] |
| 9.63 | 1970 | CCc1sc2cncn2c1C(O)c1cn(-c2ccc3[nH]ccc3c2)nn1 (racemic) [Example 50, rac-(2-Ethyl-imidazo[5,1-b]thiazol-3-yl)-[1-(1H-indol-5-yl)-1H-[1,2,3]triazol-4-yl]-methanol] |
| 9.02 | > 10200 | C=CCNC(=O)c1ccc(-n2cc(C(O)c3c(C4CC4)sc4cncn34)nn2)cc1 (racemic) [Example 193, rac-N-Allyl-4-{4-[(2-cyclopropyl-imidazo[5,1-b]thiazol-3-yl)-hydroxy-methyl]-[1,2,3]triazol-1-yl}-benzamide] |
| 7.03 | > 10200 | OCCCOc1ccc(-n2cc([C@H](O)c3c(C4CC4)sc4cncn34)nn2)cc1Cl [Example 275, 3-(2-Chloro-4-{4-[(R)-(2-cyclopropyl-imidazo[5,1-b]thiazol-3-yl)-hydroxy-methyl]-[1,2,3]triazol-1-yl}-phenoxy)-propan-1-ol] |
| 44.4 | > 10200 | CCc1sc2cncn2c1C(O)c1cn(-c2ccc(N3CCOCC3)cc2)nn1 (racemic) [Example 47, rac-(2-Ethyl-imidazo[5,1-b]thiazol-3-yl)-[1-(4-morpholin-4-yl-phenyl)-1H-[1,2,3]triazol-4-yl]-methanol] |
| 74.8 | > 10200 | COc1ccc(-n2cc(C(O)c3c(-c4ccccc4)sc4cncn34)nn2)cc1 (racemic) [Example 249, rac-[1-(4-Methoxy-phenyl)-1H-[1,2,3]triazol-4-yl]-(2-phenyl-imidazo[5,1-b]thiazol-3-yl)-methanol] |
